Measured values published in US9708247B2, “Modulators of the eIF2alpha pathway” (The Regents of the University of California, priority 2013, dated 2017).

Test system: CHOP
Assay: CHOP immunofluorescence in U2OS cells
Assay type: cell-based, human
Details: 100 nM thapsigargin 2 h, 200 nM ISRIB
Protocol: FIGS. 4A-4B. ISRIB impairs induction of the transcriptional network controlled by ATF4; (FIG. 4A) ER-stress dependent induction of CHOP and GADD34 mRNA is impaired in cells treated with ISRIB; qPCR analysis of total RNA extracted from U2OS cells treated with 2 μg/ml of tunicamycin in the presence or absence of 200 nM ISRIB for the indicated times; mRNA levels for each sample were normalized to GAPDH (N=4); P values are derived from a one tail Student's t-test for unpaired samples; statistical significance: CHOP, P=0.0006 (*); GADD34, P=0.0008 (*); (FIG. 4B) ISRIB blocks CHOP production during ER stress; an immunofluorescence analysis of U2OS cells treated with 100 nM thapsigargin for 2 h in the presence or absence of 200 nM ISRIB is shown; a secondary Alexa Dye 488 anti-mouse antibody and rhodamine-phalloidin were used to visualize CHOP and actin, respectively.
U2OS cells were seeded on Slide Flasks (Thermo Scientific) 18 h prior to processing for immunofluorescence. Cells (60% confluent) were fixed with 4% paraformaldehyde in PBS for 15 min. The cells were then rinsed 3 times with PBS and permeabilized with 0.3% Triton X-100. The fixed cells were rinsed 3 times with PBS and blocked for 1 h at room temperature in PBS supplemented with 0.1% Triton X-100 and 5% normal goat serum. […]

## O=C(COc1ccc(Cl)cc1)NC1CCC(NC(=O)COc2ccc(Cl)cc2)CC1 (stereo not shown) [ISRIB]
  CHOP accumulation after induction of ER stress: no CHOP accumulation
